According to ChEMBL document CHEMBL5352490, “SAR investigation and optimization of benzimidazole-based derivatives as antimicrobial agents against Gram-negative bacteria” (Eur J Med Chem, 2023):
In brackets after ≈: the same amount, converted by molar mass.

How the values were obtained:
[1] = test system: Escherichia coli; assay: Antibacterial activity against Escherichia coli tolC mutant incubated for 24 hrs by broth microdilution method; assay type: functional
[2] = test system: Pseudomonas aeruginosa; assay: Synergistic antibacterial activity against Pseudomonas aeruginosa ATCC 9027 incubated for 24 hrs in presence of colistin by broth microdilution method; assay type: functional
[3] = test system: Pseudomonas aeruginosa; assay: Antibacterial activity against Pseudomonas aeruginosa ATCC 9027 incubated for 24 hrs in absence of colistin by broth microdilution method; assay type: functional
[4] = test system: Acinetobacter baumannii; assay: Antibacterial activity against Acinetobacter baumannii ATCC 19606 incubated for 24 hrs in absence of colistin by broth microdilution method; assay type: functional
[5] = test system: Acinetobacter baumannii; assay: Synergistic antibacterial activity against Acinetobacter baumannii ATCC 19606 incubated for 24 hrs in presence of colistin by broth microdilution method; assay type: functional
[6] = test system: Klebsiella pneumoniae; assay: Antibacterial activity against Klebsiella pneumoniae ATCC 1706 incubated for 24 hrs in absence of colistin by broth microdilution method; assay type: functional
[7] = test system: Escherichia coli; assay: Synergistic antibacterial activity against wild type Escherichia coli BW25113 incubated for 24 hrs in presence of colistin by broth microdilution method; assay type: functional
[8] = test system: Escherichia coli; assay: Antibacterial activity against wild type Escherichia coli BW25113 incubated for 24 hrs in absence of colistin by broth microdilution method; assay type: functional
[9] = test system: Klebsiella pneumoniae; assay: Synergistic antibacterial activity against Klebsiella pneumoniae ATCC 1706 incubated for 24 hrs in presence of colistin by broth microdilution method; assay type: functional
[10] = test system: Escherichia coli; assay: Bacteriostatic effect in Escherichia coli JW55031 assessed as log reduction in bacterial count at 10 times MIC measured at 24 hrs by time kill assay; assay type: functional
[11] = Cytotoxicity against African green monkey Vero cells assessed as reduction in cell viability incubated for 24 hrs by MTS assay; assay type: toxicity, cell-based; settings: chlorocebus sabaeus
[12] = test system: Escherichia coli; assay: Bacteriostatic effect in Escherichia coli JW55031 assessed as log reduction in bacterial count at 5 times MIC measured at 24 hrs by time kill assay; assay type: functional
[13] = test system: Escherichia coli; assay: Bacteriostatic effect in Escherichia coli JW55031 assessed as log reduction in bacterial burden at 10 times MIC measured after 24 hrs by time kill assay; assay type: functional

| Compound | MIC [1] [µg/mL] | also measured |
| --- | --- | --- |
| CS(=O)(=O)Nc1cccc(-c2nc3ccccc3n2Cc2ccc(C(=N)NO)cc2)c1 | > 64 |  |
| Cc1ccc(Cn2c(-c3cccc(NS(C)(=O)=O)c3)nc3cc(C#N)ccc32)cc1 | > 64 |  |
| CC(=O)NC[C@H]1CN(c2ccc(N3CCOCC3)c(F)c2)C(=O)O1 [LINEZOLID] | 8 (≈ 23.7 µM) |  |
| Cc1ccc(Cn2c(-c3cccc(NS(C)(=O)=O)c3)nc3cc(C(F)(F)F)ccc32)cc1 | > 64 |  |
| Cc1ccc(Cn2c(-c3cccc(NS(C)(=O)=O)c3)nc3ccc(C#N)cc32)cc1 | > 64 |  |
| CCOC(=O)c1ccc2nc(-c3cccc(NS(C)(=O)=O)c3)n(Cc3ccc(C)cc3)c2c1 | > 64 |  |
| CCOC(=O)Nc1ccc2c(c1)nc(-c1cccc(NS(C)(=O)=O)c1)n2Cc1ccc(C)cc1 | > 64 |  |
| Cc1ccc(Cn2c(-c3cccc(NS(=O)(=O)c4ccc(C(F)(F)F)cc4)c3)nc3ccccc32)cc1 | > 64 |  |
| Cc1ccc(Cn2c(-c3cccc(NS(=O)(=O)c4ccc(C)cc4)c3)nc3ccccc32)cc1 | 2 (≈ 4.28 µM) |  |
| CS(=O)(=O)Nc1cccc(-c2nc3ccccc3n2Cc2ccc(-c3nnn[nH]3)cc2)c1 | > 64 |  |
| Cc1ccc(Cn2c(-c3cccc(NS(=O)(=O)c4ccc5ccccc5c4)c3)nc3ccccc32)cc1 | > 64 |  |
| COc1ccc(S(=O)(=O)Nc2cccc(-c3nc4ccccc4n3Cc3ccc(C)cc3)c2)cc1OC | 4 (≈ 7.79 µM) |  |
| COc1ccc(S(=O)(=O)Nc2cccc(-c3nc4ccccc4n3Cc3ccc(C)cc3)c2)cc1 | 4 (≈ 8.27 µM) |  |
| Cc1ccc(Cn2c(-c3cccc(NS(=O)(=O)c4ccc(F)c(F)c4)c3)nc3ccccc32)cc1 | 1 (≈ 2.04 µM) |  |
| Cc1ccc(Cn2c(-c3cccc(NS(=O)(=O)c4cccc([N+](=O)[O-])c4)c3)nc3ccccc32)cc1 | 2 (≈ 4.01 µM) |  |
| GENTAMICIN | 0.25 |  |
| Cc1ccc(Cn2c(-c3cccc(NS(C)(=O)=O)c3)nc3ccc(C(=O)O)cc32)cc1 | > 64 |  |
| Cc1ccc(Cn2c(-c3cccc(NS(=O)(=O)c4cccc(N)c4)c3)nc3ccccc32)cc1 | 2 (≈ 4.27 µM) |  |
| CCOC(=O)c1ccc2c(c1)nc(-c1cccc(NS(C)(=O)=O)c1)n2Cc1ccc(C)cc1 | > 64 |  |
| Cc1ccc(Cn2c(-c3cccc(NS(=O)(=O)c4ccc(OC(F)(F)F)cc4)c3)nc3ccccc32)cc1 | > 64 |  |
| Cc1ccc(Cn2c(-c3cccc(NS(C)(=O)=O)c3)nc3cc(C(=N)NO)ccc32)cc1 | > 64 |  |
| Cc1ccc(Cn2c(-c3cccc(-c4nnn[nH]4)c3)nc3ccccc32)cc1 | 8 (≈ 21.8 µM) |  |
| Cc1ccc(Cn2c(-c3cccc(NS(C)(=O)=O)c3)nc3cc(C(=O)O)ccc32)cc1 | > 64 |  |
| Cc1ccc(Cn2c(-c3cccc(NS(=O)(=O)c4cccc(Br)c4)c3)nc3ccccc32)cc1 | 0.5 (≈ 0.939 µM) |  |
| Cc1ccc(Cn2c(-c3cccc(NS(=O)(=O)C4CC4)c3)nc3ccccc32)cc1 | 1 (≈ 2.4 µM) |  |
| Cc1ccc(Cn2c(-c3cccc(NS(=O)(=O)c4ccc([N+](=O)[O-])cc4)c3)nc3ccccc32)cc1 | > 64 |  |
| Cc1ccc(Cn2c(-c3cccc(NS(C)(=O)=O)c3)nc3cc(C)ccc32)cc1 | > 64 |  |

| Compound | MIC [1] [µg/mL] | also measured |
| --- | --- | --- |
| Cc1ccc(Cn2c(-c3cccc(NS(C)(=O)=O)c3)nc3ccc(C(=N)NO)cc32)cc1 | > 64 |  |
| Cc1ccc(Cn2c(-c3cccc(NS(C)(=O)=O)c3)nc3ccc(C)cc32)cc1 | > 64 |  |
| Cc1ccc(Cn2c(-c3cccc(NS(=O)(=O)c4ccc(C(C)(C)C)cc4)c3)nc3ccccc32)cc1 | > 64 |  |
| CCOC(=O)c1cccc2nc(-c3cccc(NS(C)(=O)=O)c3)n(Cc3ccc(C)cc3)c12 | > 64 |  |
| Cc1ccc(Cn2c(-c3cccc(NS(C)(=O)=O)c3)nc3ccc(N)cc32)cc1 | > 64 |  |
| Cc1ccc(Cn2c(-c3cccc(NS(=O)(=O)c4ccc(C(C)C)cc4)c3)nc3ccccc32)cc1 | > 64 |  |
| CS(=O)(=O)Nc1cccc(-c2nc3ccccc3n2Cc2ccc(-c3ncon3)cc2)c1 | > 64 |  |
| Cc1ccc(Cn2c(-c3cccc(NS(=O)(=O)c4ccc(Br)cc4)c3)nc3ccccc32)cc1 | > 64 |  |
| CCCCCCCCCC(=O)N[C@@H](Cc1c[nH]c2ccccc12)C(=O)N[C@H](CC(N)=O)C(=O)N[C@@H](CC(=O)O)C(=O)N[C@@H]1C(=O)NCC(=O)N[C@@H](CCCN)C(=O)N[C@@H](CC(=O)O)C(=O)N[C@H](C)C(=O)N[C@@H](CC(=O)O)C(=O)NCC(=O)N[C@H](CO)C(=O)N[C@@H]([C@H](C)CC(=O)O)C(=O)N[C@@H](CC(=O)c2ccccc2N)C(=O)O[C@@H]1C |  | MIC [2]: > 128 µg/mL; MIC [3]: > 128 µg/mL; MIC [4]: > 128 µg/mL; MIC [5]: > 128 µg/mL; MIC [6]: > 128 µg/mL; MIC [7]: > 128 µg/mL; MIC [8]: > 128 µg/mL; MIC [9]: > 128 µg/mL |
| Cc1ccc(Cn2c(-c3cccc(NS(C)(=O)=O)c3)nc3cc(Br)ccc32)cc1 | > 64 |  |
| Cc1ccc(Cn2c(-c3cccc(C(=N)NO)c3)nc3ccccc32)cc1 | > 64 |  |
| Cc1ccc(Cn2c(-c3cccc(C(=N)N)c3)nc3ccccc32)cc1 | 32 (≈ 94 µM) |  |
| Cc1ccc(Cn2c(-c3cccc(NS(=O)(=O)c4cccc(Cl)c4)c3)nc3ccccc32)cc1 | 0.125 (≈ 0.256 µM) | MIC [2]: 16 µg/mL; log(activity) [10]: 2.9; MIC [3]: > 64 µg/mL; MIC [4]: > 64 µg/mL; MIC [5]: 4 µg/mL; CC50 at 24 h [11]: > 128 µg/mL; MIC [6]: > 64 µg/mL; MIC [7]: 16 µg/mL; MIC [8]: > 64 µg/mL; MIC [9]: 8 µg/mL; log(activity) [12]: 2.54; log(activity) [13]: 0.4 |
| CCOC(=O)Nc1ccc2nc(-c3cccc(NS(C)(=O)=O)c3)n(Cc3ccc(C)cc3)c2c1 | > 64 |  |
| CC[C@H]1OC(=O)[C@H](C)[C@@H](O[C@H]2C[C@@](C)(OC)[C@@H](O)[C@H](C)O2)[C@H](C)[C@@H](O[C@@H]2O[C@H](C)C[C@H](N(C)C)[C@H]2O)[C@](C)(O)C[C@@H](C)C(=O)[C@H](C)[C@@H](O)[C@]1(C)O [ERYTHROMYCIN] |  | MIC [2]: 8 µg/mL; MIC [3]: > 64 µg/mL; MIC [4]: 8 µg/mL (≈ 10.9 µM); MIC [5]: 0.25 µg/mL; MIC [6]: 64 µg/mL (≈ 87.2 µM); MIC [7]: 2 µg/mL; MIC [8]: 32 µg/mL (≈ 43.6 µM); MIC [9]: 4 µg/mL |
| Cc1ccc(Cn2c(-c3cccc(NS(=O)(=O)c4ccccc4)c3)nc3ccccc32)cc1 | 1 (≈ 2.2 µM) |  |
| Cc1ccc(Cn2c(-c3cccc(NS(=O)(=O)c4ccccc4[N+](=O)[O-])c3)nc3ccccc32)cc1 | 1 (≈ 2.01 µM) |  |
| Cc1ccc(Cn2c(-c3cccc(NS(C)(=O)=O)c3)nc3cccc(C(=O)O)c32)cc1 | > 64 |  |
| Cc1ccc(Cn2c(-c3cccc(NS(C)(=O)=O)c3)nc3ccccc32)cc1 | 2 (≈ 5.11 µM) |  |
| CC(=O)Nc1ccc(S(=O)(=O)Nc2cccc(-c3nc4ccccc4n3Cc3ccc(C)cc3)c2)cc1 | > 64 |  |
| Cc1ccc(Cn2c(-c3cccc(-c4ncon4)c3)nc3ccccc32)cc1 | > 64 |  |
| Cc1ccc(Cn2c(-c3cccc(NS(=O)(=O)c4ccc(F)c(Cl)c4)c3)nc3ccccc32)cc1 | 2 (≈ 3.95 µM) |  |
| Cc1ccc(Cn2c(-c3cccc(NS(C)(=O)=O)c3)nc3cc(N)ccc32)cc1 | > 64 |  |
| Cc1ccc(Cn2c(-c3cccc(NS(=O)(=O)c4ccc(N)cc4)c3)nc3ccccc32)cc1 | > 64 |  |
| Cc1ccc(Cn2c(-c3cccc(NS(=O)(=O)c4ccc(Cl)cc4)c3)nc3ccccc32)cc1 | 2 (≈ 4.1 µM) |  |
| Cc1ccc(Cn2c(-c3cccc(NS(=O)(=O)c4ccc(-c5ccccc5)cc4)c3)nc3ccccc32)cc1 | > 64 |  |
| Cc1ccc(Cn2c(-c3cccc(NS(C)(=O)=O)c3)nc3ccc(Br)cc32)cc1 | > 64 |  |
